Key:
[1] = system: C57BL/6 mice; assay: Head twitch response (HTR) in mice; format: in vivo
Procedure: Animals. Adult male C57BL/6 mice, aged 8 weeks (body weight 20-25 g) were used in these experiments. Animals were housed under controlled temperatures and 12-hour light/dark cycles (lights on between 07:00-19:00 h), with ad libitum food and water. The protocol was approved by the Eurofins Advinus Institutional Animal Care and Use Committee. This study was carried out in strict accordance with the recommendations in the Guide for the Care and Use of Laboratory Animals of the National Institutes of Health. All efforts were made to minimize suffering.
Drugs and Drug administration. Compounds 3 and 4 were prepared as described above. All other compounds were commercially obtained. Test compounds were used as the hydrogen fumarate (1 and 2) or hydrochloride (DOI, 3, and 4) salts. Drugs were dissolved in a vehicle consisting of normal saline and administered subcutaneously (SC) in a volume of 10 ml/kg. Test compounds were administered at 5 doses per compound (0.1 to 100 mg/kg, as indicated, calculated based on the free base) using N=6 animals/group. […] For blockade experiments, MDL100907 (0.1 mg/kg, SC) was administered 10 mins prior to the test compound.
Procedure. Mice were administered one dose of a test drug (or vehicle) s.c. and immediately placed into a small open field for behavioral observation. Animals were observed continuously for 20 mins and the number of HTRs were counted by an observer blind to the treatment condition.
Statistical analysis. The data points shown in Table 11 are the mean ±standard error of the mean (SEM). Analysis was performed using GraphPad Prism 9.

[2] = molecular target: 5-HT2A (Homo sapiens (Human), UniProt P28223); assay: FLIPR Ca2+ flux agonist assay, 5-HT2A; format: cell-based; conditions: HEK293
Procedure: (§1) A solution of 250 mM probenecid in 1 mL FLIPR assay buffer was prepared fresh. This was combined with a fluorescent dye (Fluo-4 Direct™) to make a final assay concentration of 2.5 mM. […] The fluorescent dye was then added to the assay plate along with assay buffer to a final volume of 40 μL. The cell plate was incubated for 50 min at 37° C. and 5% CO2 and placed into the FLIPR Tetra along with the compound plate. 10 μL of references and compounds were then transferred from the compound plate into the cell plate and the fluorescent signal was read.

[3] = Metabolic stability in rat liver microsomes (RLM); format: in vitro ADME; conditions: both sexes, pooled rat liver microsomes, pH 7.4, NADPH
Procedure: (§2) RLM Stability. Pooled RLM from adult male and female donors (Xenotech R1000) were used. Microsomal incubations were carried out in multi-well plates. […] Control incubations were performed by replacing the NADPH-cofactor system with PBS. Test compounds (1 μM, final solvent concentration 1.0%) were incubated with microsomes at 37° C. with constant shaking. Six time points over 60 minutes were analyzed, with 60 μL aliquots of the reaction mixture being drawn at each time point.

[4] = molecular target: serotonin transporter (SERT) (Homo sapiens (Human), UniProt P31645); assay: SERT fluorescent substrate uptake inhibition in transfected HEK293 cells; format: cell-based; conditions: HEK293 cells expressing SERT
Procedure: SERT Uptake Inhibition. The ability of test compounds to block monoamine uptake by SERT was determined using the Neurotransmitter Transporter Uptake Assay Kit manufactured by Molecular Devices (Cat #R8173). Briefly, stably transfected HEK293 cells expressing SERT were grown and plated into 384-well plates at a concentration of 20,000 cells per well. Plates were then incubated for 16-20 h at 37° C. and 5% CO2. The medium was then aspirated and replaced with 25 μL of assay buffer (20 mM HEPES in HBSS, containing 0.1% BSA) containing the test compounds at the appropriate concentrations. Plates were then centrifuged at 300 rpm for 15 s and then incubated at 37° C. for 30 minutes. At this time, 25 μL of the proprietary fluorescent dye solution was added, the plates were incubated at 37°° C. for 60 minutes, and then fluorescence was quantified on a plate reader (excitation wavelength =440 nm, emission wavelength=520 nm). The proprietary dye solution contains a mixture of 1) a fluorescent dye (dye 1) that mimics the endogenous substrate of SERT and is thereby actively transported to the intracellular compartment in the absence of an inhibitor and 2) a masking dye that inhibits the fluorescence of dye 1 in the extracellular compartment. Therefore, the overall fluorescence of the system increases as the fluorescent dye is transported into the cells.

[5] = system: monoamine oxidase A and B (MAO-A and MAO-B); assay: Stability in the presence of monoamine oxidases (human liver mitochondria); format: in vitro ADME
Procedure: Liver Mitochondria Incubations. Human liver mitochondria (Xenotech H0610.M) were used. Mitochondrial incubations were carried out in multi-well plates. […] Six time points over 60 minutes were analyzed.

[6] = molecular target: 5-HT1A (Homo sapiens (Human), UniProt P08908); assay: FLIPR Ca2+ flux agonist assay, 5-HT1A; format: cell-based; conditions: Ca2+ flux, CHO cells
Procedure: as §1

[7] = Metabolic stability in mouse liver microsomes (MLM); format: in vitro ADME, CD-1 mice; conditions: CD-1, mouse, pooled mouse liver microsomes, pH 7.4, NADPH
Procedure: as §2, with “MLM” for “RLM”, “CD-1 mice (BIOIVT M00501)” for “adult male and female donors (Xenotech R1000)”

[8] = Stability in rat brain homogenate; format: in vitro ADME, Sprague Dawley rats
Procedure: Rat Brain Homogenate Stability. Frozen rat brain homogenate (pooled from male Sprague Dawley rats, BioreclamationIVT, RATOOBRAINMZA) was thawed in a water bath at 37° C. immediately prior to use. Positive controls and test compounds (final concentration in incubation medium=1 μM for test compounds and 2 μM for controls, all with 2% DMSO) were incubated in duplicate for each time point (0, 10, 30, 60, and 120 min) in the rat brain homogenate at a total reaction volume of 100 μL at 37° C. At the end of each incubation period, reactions were immediately quenched with 400 μL of acetonitrile containing internal standard (200 ng/ml tolbutamine and 200 ng/ml labetalol) and mixed thoroughly. Plates were then sealed, shaken for 20 min, and centrifuged at 4,000 rpm and 4° C. for 20 min. Aliquots of 50 μL of each supernatant were diluted into 100 uL of water and the mixtures were then shaken again for 10 min.

[9] = Metabolic stability in human liver microsomes (HLM); format: in vitro ADME; conditions: both sexes, pooled human liver microsomes, pH 7.4, NADPH
Procedure: as §2, with “HLM” for “RLM”, “(Corning 452117)” for “(Xenotech R1000)”

[10] = Stability in mouse brain homogenate; format: in vitro ADME, CD-1 mice
Procedure: Mouse Brain Homogenate Stability. Frozen mouse brain homogenate (pooled from male CD-1 mice, BioreclamationIVT, MSE00BRAINMZA) was thawed in a water bath at 37° C. immediately prior to use. Positive controls and test compounds (final concentration in incubation medium=1 μM for test compounds and 2 μM for controls, all with 2% DMSO) were incubated in duplicate for each time point (0, 10, 30, 60, and 120 min) in the mouse brain homogenate at a total reaction volume of […] at 37° C. At the end of each incubation period, reactions were immediately quenched with 400 μL of acetonitrile containing internal standard (200 ng/mL tolbutamine and 200 ng/ml labetalol) and mixed thoroughly. Plates were then sealed, shaken for 20 min, and centrifuged at 4,000 rpm and 4° C. for 20 min. Aliquots of 50 μL of each supernatant were diluted into 100 μL of water and the mixtures were then shaken again for 10 min.

[11] = molecular target: 5-HT2B (Homo sapiens (Human), UniProt P41595); assay: FLIPR Ca2+ flux agonist assay, 5-HT2B; format: cell-based; conditions: Ca2+ flux, HEK293
Procedure: as §1

[12] = human liver mitochondria, pH 7.4, human mitochondrial preparation, 1 μM

Sequence of 5-HT2B (P41595 whole entry, looked up, species assumed): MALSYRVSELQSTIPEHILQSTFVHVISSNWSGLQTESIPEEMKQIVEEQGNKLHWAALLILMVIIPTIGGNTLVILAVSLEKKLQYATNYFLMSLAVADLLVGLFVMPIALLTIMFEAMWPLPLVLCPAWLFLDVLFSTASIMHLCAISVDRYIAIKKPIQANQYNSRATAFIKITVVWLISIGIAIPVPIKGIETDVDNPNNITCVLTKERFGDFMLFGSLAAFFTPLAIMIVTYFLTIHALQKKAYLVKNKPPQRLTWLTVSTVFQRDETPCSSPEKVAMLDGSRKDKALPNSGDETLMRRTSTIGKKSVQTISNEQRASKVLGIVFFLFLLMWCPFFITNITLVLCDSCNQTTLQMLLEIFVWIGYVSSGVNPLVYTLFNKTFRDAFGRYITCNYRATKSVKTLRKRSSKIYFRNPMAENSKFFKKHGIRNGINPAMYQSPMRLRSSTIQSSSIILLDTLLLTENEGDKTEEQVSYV

With `COc1cc(CC(C)N)c(OC)cc1I` (stereo not shown) [DOI, 4-iodo-2,5-dimethoxyamphetamine, reference compound] the “maximal effect in HTR” value ([1]; SC, maximal over tested doses) was 35.6 head twitches/20 min.

In the case of `COc1ccc2[nH]cc(CCN(C)C)c2c1` [Compound 5-MeO-DMT, 5-methoxy-N,N-dimethyltryptamine, reference compound], the “5-HT2A % Act @ Max Dose” value [2] is reported as 106%, the half-life at 1 μM [3] is reported as 14 min and the microsomal CLint at 1 μM [3] is reported as 98.8 µL/min/mg. For the same molecule, the IC50 [4] was 7.02 µM, the “SERT % Inhibition @ Max Dose” value [4] was 68.07% and the “MAO stability (in words)” value ([5]; human liver mitochondria preparation) was “highly metabolized”. The half-life at 1 μM [5, 12] was 52.9 min, the microsomal CLint at 1 μM [5, 12] was 43.6 µL/min/mg and the “Remaining (t = 60 min)” value ([5]; human mitochondrial preparation, 1 μM, 60 min) was 47.1%. The “5-HT1A % Act @ Max Dose” value [6] was 78.8%, the half-life at 1 μM [7] was 48.8 min and the microsomal CLint at 1 μM [7] was 28.4 µL/min/mg. For the same molecule, the “stability in rat brain homogenate (in words)” value [8] was “highly unstable”, the half-life at 1 μM ([8]; male, Sprague Dawley, rat brain homogenate, 1 μM, 37° C.) was 14.4 min and the “% Compound Remaining (after 120 min)” value ([8]; rat brain homogenate, 1 μM, 37° C.) was 0.3%. For the same molecule, the half-life at 1 μM [9] was 13.6 min, the “stability in mouse brain homogenate (in words)” value [10] was “high stability” and the half-life at 1 μM ([10]; male, CD-1, mouse brain homogenate, 1 μM, 37° C.) was greater than 289 min. For the same molecule, the “% Compound Remaining (after 120 min)” value ([10]; mouse brain homogenate, 1 μM, 37° C.) was 91.2% and the “5-HT2B % Act @ Max Dose” value [11] was 20.5%.

In the case of `COc1cccc([C@H](O)C2CCN(CCc3ccc(F)cc3)CC2)c1OC` [MDL100907, reference compound], the “blockade of the HTR induced by Compound 4” value ([1]; pretreatment 0.1 mg/kg SC, 10 mins prior to Compound 4) is reported as “completely blocked”.

From patent publication US20240317683A1, “METHODS OF TREATING MOOD DISORDERS” (priority 2020, published 2024)
